In patent US20080063628A1, “METHODS TO PROMOTE CELL DIFFERENTIATION” (priority 2006, published 2008):

Columns and labels:
[1] = test system: resting peripheral blood mononuclear cells (PBMCs); assay: Trichostatin A treatment of PBMCs, gene expression by RT-PCR (Example 20); type: cell-based, human; details: 5 μM
Text: Human peripheral blood mononuclear cells (PBMCs) were isolated from whole blood using Histopaque (Sigma) gradients and standard density centrifugation. PBMCs are a heterogeneous mixture of lymphoid cells including quiescent T-lymphocytes. Cells were washed thoroughly, counted, and resuspended at 1-2×10^6 cells per ml in culture medium containing RPMI-1640 and 10% FCS. Phytohemagglutinin (PHA; Sigma) is a mitogenic lectin that specifically induces T-lymphocyte activation and proliferation. PHA was added to the cell suspension at a final concentration of 10 μg/ml, and PBMCs were cultured for 3 days at 37° C. with 5% CO2. […] At the end of culture, PBMCs were pooled to harvest, washed thoroughly, and resuspended in fresh culture medium with 5 μM trichostatin A diluted in DMSO. A control culture of PHA-treated PBMCs received an equivalent dilution of DMSO alone. Cells were returned to culture for an additional 24 or 48 hours. Alternatively, resting PBMCs were isolated in a similar manner and cultured for 24 or 48 hours total incubation time with either 5 μM trichostatin A or DMSO alone. At the conclusion of culture, cells were harvested and washed with PBS prior to preparation of RNA in RLT lysis buffer with β-mercaptoethanol (Qiagen). RNA was purified using the RNeasy Mini Kit (Qiagen); RNA quantity and quality were determined using a spectrophotometer. CDNA was made using the iScript CDNA synthesis kit (BioRad). Samples of 20 ng CDNA were used in each RT-PCR reaction, performed on the Applied Biosystems 7500. Results were normalized against GAPDH expression levels with data analysis performed using the accompanying software.

[2] = test system: amniotic fluid-derived cell line; assay: Two high dose trichostatin A treatments (first 48 h), gene expression by RT-PCR (Example 9); type: cell-based, human; details: for Gata1 gene expression / HNF-3 beta gene expression / Insulin gene expression / Pdx-1 gene expression / sox17 gene expression: 1.25 μM 0-48 h + 96-120 h;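 as to Gata-1 RT-PCR detection cycle: lower cycle number means higher gene expression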;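 as to HNF-3 beta RT-PCR detection cycle: lower cycle number means higher gene expression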
Procedure: Several cell lines obtained from different amniotic fluid specimens (see Example 14) and pancreas donors (see Example 13) were tested with similar results. Two lines at similar passage number but derived from different amniotic fluid specimens are shown in Table VIII-A and Table VIII-B for this example. One of these cell lines was also used in examples 2 and 4 above. In addition, this example also contains comparison data in Table VIII-C and Table VIII-D for a single pancreatic-derived stromal line grown to early and late passage number.
Amniotic fluid derived cells or pancreatic-derived stromal cells were seeded into 24-well tissue culture plates at a density of 5000/cm^2 and cultured in AMNIOMAX (Invitrogen) or DMEM with 10% FBS respectively under standard cell culture conditions until confluent. After reaching confluence, amniotic fluid derived cells were treated at time 0 hours with a dose of 1.25 μM trichostatin A, and pancreatic-derived stromal cells were treated with a dose of 5.0 μM trichostatin A solubilized in DMSO and medium. At time 48 hours, cell cultures underwent a complete medium change to remove all traces of trichostatin A. At time 96 hours, cell cultures were re-fed with fresh medium and received a second dose of trichostatin A at the same concentration as used previously. At time 120 hours, cell cultures again underwent a complete medium change and were cultured for an additional 24 hours or […] total incubation time. Samples were taken for RT-PCR at the times indicated in Table IX-A to D. RNA samples were obtained daily from the start of the experiment. Culture medium was removed, and cells were washed with PBS then collected in RLT with β-mercaptoethanol (Qiagen). RNA was purified using the RNeasy Mini Kit (Qiagen) and RNA quantity and quality was determined using a spectrophotometer. cDNA was made using the iScript cDNA synthesis kit (BioRad). Human pancreas cDNA was included as a control. Results were normalized against GAPDH expression levels.
[…] Samples of 20 ng cDNA was used in each Real-Time PCR reaction. RT-PCR was performed on the Applied Biosystems 7500, according to the methods described in Example 15. The data were analyzed using the accompanying software.
Real-time PCR amplifcation and quantitative analysis. Unless otherwise stated, all reagents were purchased from Applied Biosystems. Real-time PCR reactions were performed using the ABI PRISM™ 7500 Sequence Detection System. TAQMAN™ FAST UNIVERSAL PCR MASTER MIX™ (ABI, CA) was used with 20 ng of reverse transcribed RNA in a total reaction volume of 20 μl. Each cDNA sample was run in duplicate to allow correction of pipetting errors. Primers and FAM-labeled TAQMAN™ probes were used at concentrations of 200 nM. The level of expression for each target gene was normalized using the pre-developed Applied Biosystem's human glyceraldehyde-3-phosphate dehydrogenase (GAPDH) endogenous control kit. Primers and probes were designed using either ABI PRISM PRIMER EXPRESS™ software or a pre-developed ABI gene analysis kit. For each gene, either one of the primers or the probe were designed to be exon-boundary spanning. This eliminated the possibility of the primers/probe binding to any genomic DNA present. The primer and probe sets are listed as follows: Pdx-1 (Hs00426216), Insulin (Hs00355773), glucagon (Hs00174967), and FoxA2 (HNF 3-beta) (Hs00232764). The remaining primers were designed using the PRIMERS program (ABI, CA). After an initial 95° C. incubation for 20 sec, samples were cycled 40 times in two stages: a denaturation step at 95° C. for 3 sec, followed by an annealing/extension step at 60° C. for 30 sec.
For each primer/probe set, a cycle time value was determined as the cycle number at which the fluorescence intensity of the PCR reaction reached a specific value in the middle of the exponential region of amplification. […]

[3] = 1.25 μM, following the addition

## CC(/C=C/C(=O)NO)=C\[C@@H](C)C(=O)c1ccc(N(C)C)cc1 [trichostatin A]
[1]; 24 or 48 hours
  HNF-3 beta expression: negative
  Sox17 expression: negative
  glucagon expression: negative
  insulin expression: negative
  somatostatin expression: negative
[1]; 24 hrs
  GAPDH gene expression: +++ (detectable at less than 35 cycles by RT-PCR with SE less than 0.9)
  GATA4 gene expression: + (detectable at greater than 35–40 cycles by RT-PCR)
  Gata1 gene expression: nd (not detectable at >40 cycles by RT-PCR)
  Pdx-1 gene expression: nd (not detectable at >40 cycles by RT-PCR)
[1]; 48 hours
  GAPDH gene expression: +++ (detectable at less than 35 cycles by RT-PCR with SE less than 0.9)
  GATA4 gene expression: + (detectable at greater than 35–40 cycles by RT-PCR)
  Gata1 gene expression: nd (not detectable at >40 cycles by RT-PCR)
  Pdx-1 gene expression: nd (not detectable at >40 cycles by RT-PCR)
[2]; 24 hrs
  Gata1 gene expression: + (detectable between 35 and 40 cycles by RT-PCR)
  HNF-3 beta gene expression: +++ (detectable at less than 35 cycles by RT-PCR with SE less than 0.9)
  Insulin gene expression: nd (not detectable at >40 cycles by RT-PCR)
  Pdx-1 gene expression: +++ (detectable at less than 35 cycles by RT-PCR with SE less than 0.9)
  sox17 gene expression: +++ (detectable at less than 35 cycles by RT-PCR with SE less than 0.9)
[2]; 48 hrs
  Gata1 gene expression: nd (not detectable at >40 cycles by RT-PCR)
  HNF-3 beta gene expression: +++ (detectable at less than 35 cycles by RT-PCR with SE less than 0.9)
  Insulin gene expression: nd (not detectable at >40 cycles by RT-PCR)
  Pdx-1 gene expression: +++ (detectable at less than 35 cycles by RT-PCR with SE less than 0.9)
  sox17 gene expression: +++ (detectable at less than 35 cycles by RT-PCR with SE less than 0.9)
[2]; 72 hrs
  Gata1 gene expression: nd (not detectable at >40 cycles by RT-PCR)
  HNF-3 beta gene expression: + (detectable between 35 and 40 cycles by RT-PCR)
  Insulin gene expression: nd (not detectable at >40 cycles by RT-PCR)
  Pdx-1 gene expression: nd (not detectable at >40 cycles by RT-PCR)
  sox17 gene expression: +++ (detectable at less than 35 cycles by RT-PCR with SE less than 0.9)
[2]; 96 hrs
  Gata1 gene expression: nd (not detectable at >40 cycles by RT-PCR)
  HNF-3 beta gene expression: nd (not detectable at >40 cycles by RT-PCR)
  Insulin gene expression: nd (not detectable at >40 cycles by RT-PCR)
  Pdx-1 gene expression: nd (not detectable at >40 cycles by RT-PCR)
  sox17 gene expression: +++ (detectable at less than 35 cycles by RT-PCR with SE less than 0.9)
[2]; 120 hrs
  Gata1 gene expression: nd (not detectable at >40 cycles by RT-PCR)
  HNF-3 beta gene expression: + (detectable between 35 and 40 cycles by RT-PCR)
  Insulin gene expression: nd (not detectable at >40 cycles by RT-PCR)
  Pdx-1 gene expression: + (detectable between 35 and 40 cycles by RT-PCR)
  sox17 gene expression: +++ (detectable at less than 35 cycles by RT-PCR with SE less than 0.9)
[2]; 1.25 μM, after the second treatment
  Pdx-1 RT-PCR detection cycle: 37 cycles
[2]; 1.25 μM, following first treatment
  Gata-1 RT-PCR detection cycle: 37 cycles
[2]; [3]
  HNF-3 beta RT-PCR detection cycle: 31 cycles
  Pdx-1 RT-PCR detection cycle: 32 cycles
[2]; 1.25 μM, following the second treatment
  HNF-3 beta RT-PCR detection cycle: 35 cycles
